Data taken from patent US8143025B2, “Antibodies against vascular endothelial growth factor receptor-1” (ImClone LLC, priority 2004, dated 2012).
“Also recorded” adds a separate entry of the source.

How the values were obtained:
[1] = test system: DU4475 carcinoma cells; assay: Cell growth assay (Example 5); assay type: cell-based, human; details: 3, 10, 30 μg/ml antibody, 50 ng/ml VEGF or 200 ng/ml PlGF, 48 hours
Description: DU4475 carcinoma cells were seeded at a density of 5×10^3/well into 96-well plates in serum-free conditions for 18 hours, and in some case followed by treatment with 100 nM of desferoxamine for additional 5 hours. Inhibitory effect of anti-VEGFR-I antibody on tumor cell growth was determined by incubation of cells with anti-VEGFR-I antibody clones 6F9, 13G12, 15F1 1, and 18F1 at doses of 3, 10, and 30 μg/ml in the presence of 50 ng/ml of VEGF or 200 ng/ml of PlGF for 48 hours. Viable cells were then counted in triplicate using a Coulter cytometer (Coulter Electronics Ltd. Luton, Beds, England). Each experiment was done in triplicate.

[2] = test system: GEO xenograft; assay: GEO colon cancer xenograft; assay type: in vivo, mouse; details: monotherapy, FIG. 26C
Description: Female athymic nu/nu mice, 6-8 weeks of age, were injected subcutaneously on the lateral dorsal surface with 0.4 mL volume of a suspension containing a human tumor cell line in media, diluted 1:1 with MATRIGEL™ (BD Biosciences). The cell lines used in xenograft models, with the cell doses indicated in parenthesis (10^6 cells/mouse), were: human colon carcinoma cell lines DLD-I (5), GEO (5) and HT-29 (5); human breast carcinoma cell lines DU4475 (2), MDA-MB-231 (5), MDA-MB-435 (5), and BT474 (5). When tumors reached approximately 200-300 mm^3, mice were randomized by tumor size and divided into treatment groups. Tumor growth was evaluated approximately twice weekly, with tumor volume calculated as π/6* (Length*Width^2), where Length=longest diameter and Width=diameter perpendicular to Length. Tumor dimensions were measured with calipers. T/C % was calculated as 100*(Final Treatment Tumor Volume/Initial Treatment Tumor Volume)/(Final Control Tumor Volume/Initial Control Tumor Volume).
18F1 was diluted in 0.9% USP saline (Braun) or phosphate buffered saline (PBS) and administered intraperitoneally in a volume of 0.5 mL per mouse. The effect of treatment on tumor growth was analyzed using repeated measures analysis of variance (RM ANOVA), p<0.05 was considered significant.

[3] = test system: HT-29 human colon carcinoma cells; assay: Soft agarose colony formation; assay type: cell-based; details: 66 nM antibody, 10 ng/mL VEGF-A or 50 ng/mL VEGF-B, 14 days, p<0.03
Description: One mL DMEM medium containing 10% FBS and 1% agarose (Cambrex Corporation, East Rutherford, N.J.) was plated in each well of six well plates. HT-29 human colon carcinoma cells in serum free medium were treated with 66 nM 18F1 or control IgG for 1 hour and followed by treatment with 10 ng/mL VEGF-A or 50 ng/mL VEGF-B for additional 4 hours. The treated cells were mixed with 1 mL 10% FBS DMEM containing 0.5% agarose and the appropriate antibodies and/or ligands. One mL of this suspension, containing 250 cells, was plated in each well on top of the 1% agarose base layer. After 2 days, additional medium containing antibodies and/or ligands was added to the wells to keep the agarose hydrated. Cells were allowed to grow for 14 days at 37° C. Afterwards, colonies larger than 50 μm in diameter were counted using a dissecting microscope. Statistical analysis was performed using hiStat Statistical Software (V2.03, GraphPad Software, San Diego, Calif.)

[4] = target: VEGFR-I (Homo sapiens, UniProt P17948); assay: VEGFR-I phosphorylation assay, PAE-VEGFR-I cells; assay type: cell-based; parameters: host or cells: porcine aorta endothelial (PAE) cells; details: PAE-VEGFR-I transfectant, compared to untreated control, FIG. 10
Sequence of VEGFR-I (P17948 27-1338): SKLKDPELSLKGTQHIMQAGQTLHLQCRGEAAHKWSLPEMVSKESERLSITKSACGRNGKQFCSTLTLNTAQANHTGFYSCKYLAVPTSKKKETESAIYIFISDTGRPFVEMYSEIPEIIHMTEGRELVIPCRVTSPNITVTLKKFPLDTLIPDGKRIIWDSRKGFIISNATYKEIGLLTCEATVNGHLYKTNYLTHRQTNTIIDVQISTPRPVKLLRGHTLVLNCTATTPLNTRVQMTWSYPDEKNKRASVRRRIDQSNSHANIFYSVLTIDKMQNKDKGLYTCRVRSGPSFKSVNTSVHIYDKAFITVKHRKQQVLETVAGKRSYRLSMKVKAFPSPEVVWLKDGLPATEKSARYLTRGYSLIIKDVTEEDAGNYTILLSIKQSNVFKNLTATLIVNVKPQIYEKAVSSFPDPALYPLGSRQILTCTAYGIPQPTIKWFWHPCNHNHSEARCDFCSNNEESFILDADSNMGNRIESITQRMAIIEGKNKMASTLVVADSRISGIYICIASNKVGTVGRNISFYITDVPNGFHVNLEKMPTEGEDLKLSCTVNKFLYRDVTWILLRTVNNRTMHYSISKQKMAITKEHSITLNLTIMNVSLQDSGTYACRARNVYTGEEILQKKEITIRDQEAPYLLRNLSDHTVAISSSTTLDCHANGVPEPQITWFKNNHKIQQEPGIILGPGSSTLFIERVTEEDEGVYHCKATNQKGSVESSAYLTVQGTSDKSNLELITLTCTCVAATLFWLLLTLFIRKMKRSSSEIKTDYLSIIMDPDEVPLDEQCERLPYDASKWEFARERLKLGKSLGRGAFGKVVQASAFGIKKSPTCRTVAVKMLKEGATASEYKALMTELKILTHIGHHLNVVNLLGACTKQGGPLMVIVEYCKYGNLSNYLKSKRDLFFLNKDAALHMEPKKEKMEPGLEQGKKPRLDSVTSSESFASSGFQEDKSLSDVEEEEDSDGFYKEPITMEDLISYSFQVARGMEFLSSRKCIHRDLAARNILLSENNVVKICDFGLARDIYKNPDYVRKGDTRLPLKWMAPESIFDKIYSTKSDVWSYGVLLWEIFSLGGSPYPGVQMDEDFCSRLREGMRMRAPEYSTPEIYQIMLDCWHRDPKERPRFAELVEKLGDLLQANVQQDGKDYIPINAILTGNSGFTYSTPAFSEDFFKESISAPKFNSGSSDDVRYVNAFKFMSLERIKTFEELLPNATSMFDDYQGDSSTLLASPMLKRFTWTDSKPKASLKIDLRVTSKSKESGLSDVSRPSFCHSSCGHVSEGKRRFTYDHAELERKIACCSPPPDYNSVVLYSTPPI
Description: Confluent porcine aorta endothelial VEGFR-I expressing (PAE-VEGFR-I) cells and BT474 human breast carcinoma cells were cultured in serum-depleted F12 medium for 48 hours. The cells were then preincubated with anti-VEGFR-I antibody clone 18F1 at concentrations ranging from 0.1 to 30 μg/ml for 1 hour followed by stimulating with VEGF or PlGF for 5 minutes at 37° C. The cells were then rinsed with ice-cold PBS and lysed in lysis buffer (50 mM HEPES, 150 mM NaCl, 1% Triton X-100, and 10% glycerol containing 1 mM phenylmethylsulfonyl fluoride, 10 μg/ml aprotinin, 10 μg/ml leupeptin, and 1 mM sodium vanadate). Cell lysates were subjected to SDS-PAGE and transferred onto Immobilon membranes (Millipore Corp. Billerica, Mass.). […]
Autophosphorylation of the VEGFR-I induced by its ligands and resulting activation of a classical MAPK, extracellular signal-regulated protein kinases 1Z2 (ERK1Z2) and the PBK/Atk downstrean signaling pathways mediate cellular biological responses such as proliferation, motility, survival, and differentiation. The ability of an anti-VEGFR-1 antibody to inhibit phosphorylation of VEGFR-I and activation of ERK1 Z2 and the Akt kinases downstream signaling were determined by using the PAE-VEGFR-I transfectant and BT474 breast carcinoma cells. […]

18F1: human anti-VEGFR-1 monoclonal antibody clone; VL SEQ ID NO: 16, VH SEQ ID NO: 20 [Clone 18F1]
VEGF and PlGF stimulated proliferation of DU4475 breast carcinoma cells [1]: inhibition | antitumor effect against GEO colon cancer xenografts [2]: significant antitumor effect | VEGF-A or VEGF-B induced colony formation [3]: completely suppressed | PlGF-stimulated phosphorylation of VEGFR-I [4]: significantly reduced; also recorded: reduction
